Experimental data published in paper PMC3944116 (CPT: Pharmacometrics & Systems Pharmacology, 2014).

Key:
[1] = cited from earlier work
Population PK modeling = details: for Q/F, intercompartmental clearance: F fixed 0.5/1/0.23
CYP3A4/CYP3A5 = details: for Mean value (%), difference in CL/F, cluster C1 vs C4: C1: CYP3A5*1 noncarriers and CYP3A4*22 carriers; for Mean value (%), difference in CL/F, cluster C2 vs C4: C2: CYP3A5*1 noncarriers and CYP3A4*22 noncarriers
CYP3A4 = assay: Pharmacogenetic covariate analysis: CYP3A4*22 on CL/F; format: in vivo, human; details: stated as % lower in text; univariate on base model
CYP3A5 = assay: Pharmacogenetic covariate analysis: CYP3A5*3 on CL/F; format: in vivo, human; details: final model; fractional change of CL/F in CYP3A5*1 carriers
[2] = base model without covariates, population estimate
[3] = final model with covariates, population estimate
[4] = final model, median of 1,000 bootstrap runs

SMILES | plasma fraction bound to plasma proteins [1] [%] | Lagtime of absorption (Population PK modeling; [2]) [h] | Q/F, intercompartmental clearance (Population PK modeling; [2]) [L/h] | Vp/F, apparent peripheral distribution volume (Population PK modeling; base model without covariates, population estimate, fixed to 500 for tacrolimus) [L] | Vp/F (Population PK modeling; final model with covariates, fixed to 500 for tacrolimus) [L] | Ka (Population PK modeling; [3]) [h⁻¹] | Lagtime (Population PK modeling; [3]) [h] | Q/F (Population PK modeling; [3]) [L/h] | Vc/F (Population PK modeling; [3]) [L] | CL/F (Population PK modeling; [4]) [L/h] | IBW on Vc/F, covariate effect (Population PK modeling; final model, ideal BW centered on population median, exponential function) | Mean value (%), difference in CL/F, cluster C1 vs C4 (CYP3A4/CYP3A5; univariate on base model) [%] | Mean value (%), difference in CL/F, cluster C2 vs C4 (CYP3A4/CYP3A5; univariate on base model) [%] | lower clearance of CYP3A4*22 carriers compared with noncarriers (CYP3A4) [%] | CYP3A5*3 on CL/F, covariate effect (CYP3A5) | DDPR ≤25 mg (IOV F) (Population PK modeling; [4]) | HTC on CL/F + IOV F, covariate effect (Population PK modeling; final model, hematocrit) | difference in clearance introduced for noncarriers of the CYP3A5*1 allele by CYP3A4*22 carriership (CYP3A4/CYP3A5; C1 vs C2) [%] | Mean value (%), difference in CL/F, cluster C3 vs C4 (CYP3A4/CYP3A5; C3: CYP3A5*1 carriers and CYP3A4*22 carriers, univariate on base model) [%]
CO[C@H]1C[C@@H]2CC[C@@H](C)[C@@](O)(O2)C(=O)C(=O)N2CCCC[C@H]2C(=O)O[C@H]([C@H](C)C[C@@H]2CC[C@@H](OCCO)[C@H](OC)C2)CC(=O)[C@H](C)/C=C(\C)[C@@H](O)[C@@H](OC)C(=O)[C@H](C)C[C@H](C)/C=C/C=C/C=C/1C [Everolimus] | 75 | 0.71 | 42.7 | 348 | 343 | 7 | 0.71 | 43.1 | 140 | 16.7 | −0.96 | −15 | −10 | 7 |  |  |  |  | 
C=CC[C@@H]1/C=C(\C)C[C@H](C)C[C@H](OC)[C@H]2O[C@@](O)(C(=O)C(=O)N3CCCC[C@H]3C(=O)O[C@H](/C(C)=C/[C@@H]3CC[C@@H](O)[C@H](OC)C3)[C@H](C)[C@@H](O)CC1=O)[C@H](C)C[C@@H]2OC [Tacrolimus] |  | 0.81 | 17.2 |  |  | 0.55 | 0.81 | 21 | 25.5 |  |  | −47 | −33 |  | 0.52 | 0.32 | −0.587 | 14 | −3
